Measured values from patent US7626044B2, “Triptolide derivatives and their uses” (priority 2002, dated 2009).
Values after ≈ are worked out from the molar mass of the structure shown.

Assays:
[1] = test system: splenocytes (C57BL/6 responder, Balb/c stimulator); assay: MLR response of C57BL/6 against Balb/c; assay type: cell-based, mouse
Protocol: C57BL/6 and Balb/c mice were sacrificed by cervical dislocation, and spleens were collected under sterile conditions then teased through a nylon mesh. Erythrocytes were lysed. Cells were washed and resuspended at 6×10^6/ml in RPMI-1640 media with 10% FBS.
Splenocytes from responder (C57BL/6) were mixed with stimulator (Balb/c), which was pretreated with ^60Co Gamma Ray irradiation (3000 rads).
Stimulator and responder cells were cultured in a 200 μl volume in 96-well plate in the presence of drugs or medium, at 37° C., 5% CO2 in a humidified incubator, for 3, 4, and 5 days, respectively. In the last 8 h of incubation, cells were treated with 25 μl (3.8×10^10 Bq) of [^3H]Thymidine.
At the end of incubation, pulsed cells were harvested on a glass filter using a cell harvester ([…]96®, TOMTEC) and allowed to dry. Incorporation of radioactive thymidine was determined by using liquid Scintillation and Luminescence Counters (MicroBeta Trilux®, PerkinElmer).

[2] = test system: DNFB-induced mouse DTH response; assay: DNFB-induced mouse delayed type hypersensitivity response (DTH); assay type: in vivo
Protocol: Female Balb/c mice (age of 6-8 wk) were randomly divided into groups and immunized with 20 μl 0.5% DNFB solution in absolute acetone-olive oil (4:1) on each hind foot on day 0 and 1;
7-9 days after the initial immunization, mice were boosted with 10 μl 0.4% DNFB on both sides of the left ear, whereas the right ear was treated with vehicle alone;
Compounds were administered intraperitoneally (i.p.) or orally (p.o.) to the mice 1 h before DNFB booster immunization and 12 h later.
Ear swelling and other indexes were assessed 24-48 h after booster immunization.
Note: Female ICR mice (age of 6-8 wk) were immunized with 0.7% DNFB solution and boosted with 0.6% DNFB solution.

[3] = Table 5, i.p., dosage 1 mg/kg/d for 5 days, control 20

Structure (SMILES): CC(C)[C@]12O[C@H]1[C@@H]1O[C@]13[C@]1(O[C@H]1C[C@@]1(O)C4=C(CC[C@]31C)C(=O)OC4)[C@@H]2O [LLDT-8, (5R)-5-hydroxytriptolide]
- ED50 (MLR response) ([1]; C57BL/6 against Balb/c): 0.6 ng/mL (≈ 1.59 nM)
- EC50 ([1]; C57BL/6 against Balb/c, read-out: ED50 (MLR response)): 1.6 nM
- potency higher than CsA (MLR) ([1]; compared with CsA): about 2.5 fold
- Body weight after i.p. [2, 3]: 21/21 g
- Body weight before i.p. [2, 3]: 21/21 g
- Right ear ([2]; Table 5, i.p., dosage 1 mg/kg/d for 5 days, control 31.2): 35.5 mg
- Ear swelling ([2]; Table 5, i.p., dosage 1 mg/kg/d for 5 days, control 32.6): 21.4 mg
- Left ear ([2]; Table 5, i.p., dosage 1 mg/kg/d for 5 days, control 63.8): 56.9 mg
- Spleen ([2]; Table 5, i.p., dosage 1 mg/kg/d for 5 days, control 142.4): 140.3 mg
- Right ear ([2]; Table 6, i.p. once a day for 2 days, ICR mice, dosage 0.04 mg/kg, control 30.0): 29.4 mg
- Ear swelling ([2]; Table 6, i.p. once a day for 2 days, ICR mice, dosage 0.04 mg/kg, control 31.1): 26.1 mg
- Left ear ([2]; Table 6, i.p. once a day for 2 days, ICR mice, dosage 0.04 mg/kg, control 61.1): 55.5 mg
- Right ear ([2]; Table 6, i.p. once a day for 2 days, ICR mice, dosage 0.2 mg/kg, control 30.0): 37.4 mg
- Ear swelling ([2]; Table 6, i.p. once a day for 2 days, ICR mice, dosage 0.2 mg/kg, control 31.1): 17.9 mg
- Left ear ([2]; Table 6, i.p. once a day for 2 days, ICR mice, dosage 0.2 mg/kg, control 61.1): 55.3 mg
- Right ear ([2]; Table 6, i.p. once a day for 2 days, ICR mice, dosage 1 mg/kg, control 30.0): 33.0 mg
- Ear swelling ([2]; Table 6, i.p. once a day for 2 days, ICR mice, dosage 1 mg/kg, control 31.1): 23.4 mg
- Left ear ([2]; Table 6, i.p. once a day for 2 days, ICR mice, dosage 1 mg/kg, control 61.1): 56.4 mg
- Ear swelling X ± SD ([2]; Table 7, i.p. at low dosages, Balb/c mice, dosage 2 (mg/kg), control 23.3 ± 4.3): 16.8 ± 5.4 mg
- Right ear ([2]; Table 7, i.p. at low dosages, Balb/c mice, dosage 2 (mg/kg), control 26.3): 27.5 mg
- Left ear ([2]; Table 7, i.p. at low dosages, Balb/c mice, dosage 2 (mg/kg), control 49.6): 44.3 mg
- Ear swelling X ± SD ([2]; Table 7, i.p. at low dosages, Balb/c mice, dosage 8 (mg/kg), control 23.3 ± 4.3): 16.6 ± 4.1 mg
- Right ear ([2]; Table 7, i.p. at low dosages, Balb/c mice, dosage 8 (mg/kg), control 26.3): 29.7 mg
- Left ear ([2]; Table 7, i.p. at low dosages, Balb/c mice, dosage 8 (mg/kg), control 49.6): 46.3 mg
- Ear swelling X ± SD ([2]; Table 7, i.p. at low dosages, Balb/c mice, dosage 40 (mg/kg), control 23.3 ± 4.3): 16.9 ± 2.7 mg
- Right ear ([2]; Table 7, i.p. at low dosages, Balb/c mice, dosage 40 (mg/kg), control 26.3): 25.7 mg
- Left ear ([2]; Table 7, i.p. at low dosages, Balb/c mice, dosage 40 (mg/kg), control 49.6): 42.6 mg
- Ear swelling X ± SD ([2]; Table 7, i.p. at low dosages, Balb/c mice, dosage 200 (mg/kg), control 23.3 ± 4.3): 17.1 ± 5.1 mg
- Right ear ([2]; Table 7, i.p. at low dosages, Balb/c mice, dosage 200 (mg/kg), control 26.3): 27.2 mg
- Left ear ([2]; Table 7, i.p. at low dosages, Balb/c mice, dosage 200 (mg/kg), control 49.6): 44.3 mg
- Body weight after i.p. ([2]; Table 8, i.p., Balb/c mice, dosage 0.4 (mg/kg), control 21.9): 22.6 g
- Body weight before i.p. ([2]; Table 8, i.p., Balb/c mice, dosage 0.4 (mg/kg), control 22.4): 22.3 g
- Ear swelling X ± SD ([2]; Table 8, i.p., Balb/c mice, dosage 0.4 (mg/kg), control 22.7 ± 2.1): 17.7 ± 4.7 mg
- Right ear ([2]; Table 8, i.p., Balb/c mice, dosage 0.4 (mg/kg), control 26.4): 29.2 mg
- Left ear ([2]; Table 8, i.p., Balb/c mice, dosage 0.4 (mg/kg), control 49.1): 47.0 mg
- Spleen ([2]; Table 8, i.p., Balb/c mice, dosage 0.4 (mg/kg), control 154.0): 164.2 mg
- Body weight after i.p. ([2]; Table 8, i.p., Balb/c mice, dosage 4 (mg/kg), control 21.9): 21.8 g
- Body weight before i.p. ([2]; Table 8, i.p., Balb/c mice, dosage 4 (mg/kg), control 22.4): 21.4 g
- Ear swelling X ± SD ([2]; Table 8, i.p., Balb/c mice, dosage 4 (mg/kg), control 22.7 ± 2.1): 15.3 ± 4.7 mg
- Right ear ([2]; Table 8, i.p., Balb/c mice, dosage 4 (mg/kg), control 26.4): 26.8 mg
- Left ear ([2]; Table 8, i.p., Balb/c mice, dosage 4 (mg/kg), control 49.1): 42.1 mg
- Spleen ([2]; Table 8, i.p., Balb/c mice, dosage 4 (mg/kg), control 154.0): 163.3 mg
- Body weight after i.p. ([2]; Table 8, i.p., Balb/c mice, dosage 40 (mg/kg), control 21.9): 21.4 g
- Body weight before i.p. ([2]; Table 8, i.p., Balb/c mice, dosage 40 (mg/kg), control 22.4): 21.6 g
- Ear swelling X ± SD ([2]; Table 8, i.p., Balb/c mice, dosage 40 (mg/kg), control 22.7 ± 2.1): 17.1 ± 4.9 mg
- Right ear ([2]; Table 8, i.p., Balb/c mice, dosage 40 (mg/kg), control 26.4): 29.6 mg
- Left ear ([2]; Table 8, i.p., Balb/c mice, dosage 40 (mg/kg), control 49.1): 46.7 mg
- Spleen ([2]; Table 8, i.p., Balb/c mice, dosage 40 (mg/kg), control 154.0): 168.5 mg
- Body weight after (i.p.) ([2]; Table 9, p.o., Balb/c mice, dosage 1 mg/kg/d for 2 days, control 19): 21/21 g
- Body weight before (i.p.) ([2]; Table 9, p.o., Balb/c mice, dosage 1 mg/kg/d for 2 days, control 20): 21/21 g
- Ear swelling ([2]; Table 9, p.o., Balb/c mice, dosage 1 mg/kg/d for 2 days, control 23.4): 13.1 mg
- Right ear ([2]; Table 9, p.o., Balb/c mice, dosage 1 mg/kg/d for 2 days, control 25.9): 27.3 mg
